Source: publication doi:10.1101/2022.12.02.518844v2 (bioRxiv, 2022)

System: 1057 cells (GRPR^pos)
Experiment: Cell growth of GRPR^pos mouse melanoma cells
Type: cell-based
Settings: 1 µM GRPR inhibitor + 10 nM GRP, low-serum medium, 48 h

`COc1ccc(C2(CNC(=O)[C@](C)(Cc3c[nH]c4ccccc34)NC(=O)Nc3ccc([N+](=O)[O-])cc3)CCCCC2)nc1` [PD-176252] was tested, and the “GRP-induced growth assessed by MTT” value was “same blocking effect”.
